Converted amounts (≈) assume the structure as drawn. Where two headings read alike, the source gives them in different places.
Columns and labels:
[1] = Copper(I) binding constant of NNSN compounds (1H-NMR titration with CuBr in D4-methanol); conditions: for Binding constant: Cu-NNSN 1:1 stoichiometry; for Copper (I) binding constant: Table I
Experimental: They were recorded in D4-methanol by means of adding aliquots of a 5 mmol CuBr stock solution in D4-methanol to the 1 mmol NNSN-compound, resulting in 0, 0.5, 1.0, 2.0 and 3.0 mmol CuBr concentration in D4-methanol.

[2] = test system: MRSA; test: In vitro activity against S. aureus (MRSA), MIC with or without Cu supplementation; conditions: for MIC: Staphylococcus aureus, MRSA; for MIC* against MRSA: kinetic data (determined from bacteria growth experiments), resulting in IC50 values similar to MIC values
Experimental: S. aureus was inoculated in Mueller-Hinton medium from frozen stocks and grown for 2-4 h (until reaching an OD600˜1) at 37° C. while shaking. Once the OD was reached, bacteria were harvested and diluted in Phenolred-free RPMI1640 medium to an OD of 0.01 (=inoculum). Test compounds where diluted from frozen DMSO-stocks were diluted in Phenolred-free RPMI1640 medium with or without Cu supplementation (100 μM) and serially diluted in 96-well plates in the same medium to achieve a final concentration of between 0.08 and 10 μM after addition of an equal volume of inoculum. Medium-only controls and growth controls in the absence of test compounds were also included. The plates were placed in sealed bags and incubated at 37° C. After 15-20 h incubation time, an OD600 reading was taken and analyzed. […] If kinetic data were required, resazurin was added to each well. Using a plate reader with incubation chamber, resazurin conversion was monitored by fluorescence reading every 20 min for up to 24 h. After normalizing the data to respective controls, the MIC was determined using the same definition as above.

[3] = Therapeutic index (approx.)
[4] = test system: S. aureus strain 1471; test: Drop assay against S. aureus strain 1471 with or without copper
Experimental: For the drop assay, bacteria were grown in wells with or without copper, using a 1:2 drug titration starting at 10 μM.

[5] = log P (octanol/water partition coefficient); assay type: physicochemical
[6] = test system: Avirulent Mtb strain mc26206 (H37Rv ΔpanCD ΔleuCD, double auxotroph); test: microbe, parasite or virus in culture; assay type: cell-based; conditions: Mycobacterium tuberculosis
[7] = test system: multi-drug resistant Gram-positive bacteria; conditions: current antibiotics, background section; cited from earlier work
[8] = read-out: MIC* against MRSA (μM), kinetic data (determined from bacteria growth experiments), resulting in IC50 values similar to MIC values
[9] = Staphylococcus aureus, MRSA, read-out: MIC against MRSA (clinical isolate 1471)
[10] = Staphylococcus aureus, 1471, read-out: MIC: +50 μM Cu

## S=C(Nc1ccc(Cl)cc1)n1cccn1 [listing 1 of 2 here]
[1]
  Binding constant: 2100 M⁻¹
  Copper (I) binding constant: 2100 M⁻¹
[2]; organism not named there
  MIC: 5 µM (≈ 1.19 µg/mL)
[2]
  MIC* against MRSA: 5.0 µM (≈ 1.19 µg/mL)

## S=C(Nc1ccc(Cl)cc1)n1cccn1 [listing 2 of 2 here]
[1]
  Copper (I) binding constant: 1434 M⁻¹
[2]
  MIC* against MRSA: 1.25 µM (≈ 0.297 µg/mL)

## CC(C)(C)n1ccc(NC(=O)Nc2ccc(Cl)cc2)n1 [SB10, 1-(1-(tert-butyl)-1H-pyrazol-3-yl)-3-(4-chlorophenyl)urea]
[1]
  Binding constant: 1786.13 M⁻¹

## Cn1ccc(NC(=O)Nc2ccc(Cl)cc2)n1 [SB11, 1-(4-chlorophenyl)-3-(1-methyl-1H-pyrazol-3-yl)urea]
[1]
  Binding constant: < 100 M⁻¹

## S=C(Nc1ccc(Cl)cc1)n1ccnn1 [SB18]
[1]
  Binding constant: < 1000 M⁻¹

## FC(F)(F)c1ccn(C(=S)Nc2ccc(Cl)cc2)n1 [SB20]
[1]
  Binding constant: < 1000 M⁻¹

## O=[N+]([O-])c1ccc(NC(=S)n2cccn2)cc1 [SB21, N-(4-nitrophenyl)-1H-pyrazole-1-carbothioamide]
[1]
  Binding constant: 26063 M⁻¹
[2]; organism not named there
  MIC: 10 µM (≈ 2.48 µg/mL)

## COc1ccc(NC(=S)n2cccn2)cc1 [SB22, N-(4-methoxyphenyl)-1H-pyrazole-1-carbothioamide]
[1]
  Binding constant: 3975 M⁻¹
  Copper (I) binding constant: 3975 M⁻¹
[2]; [8]
  MIC: 10 µM (≈ 2.33 µg/mL)
[2]; organism not named there
  MIC: 10 µM (≈ 2.33 µg/mL)
[3]
  Therapeutic index (approx.): >2

## Fc1ccc(NC(=S)n2cccn2)cc1 [SB23, N-(4-fluorophenyl)-1H-pyrazole-1-carbothioamide]
[1]
  Binding constant: 22057 M⁻¹
[2]; organism not named there
  MIC: > 10 µM

## Cc1ccc(NC(=S)n2cccn2)cc1 [SB25, N-(p-tolyl)-1H-pyrazole-1-carbothioamide]
[1]
  Copper (I) binding constant: 1635 M⁻¹
[2]; [8]
  MIC: 5 µM (≈ 1.09 µg/mL)

## S=C(Nc1ccc(Br)cc1)n1cccn1 [SB26, N-(4-bromophenyl)-1H-pyrazole-1-carbothioamide]
[1]
  Copper (I) binding constant: 1550 M⁻¹
[2]; [8]
  MIC: 10 µM (≈ 2.82 µg/mL)

## O=[N+]([O-])c1ccc(NC(=S)Nc2cc[nH]n2)cc1 [SB28, 1-(4-nitrophenyl)-3-(1H-pyrazol-3-yl)thiourea]
[1]
  Binding constant: 1200 M⁻¹
[2]; read-out: MIC (MRSA), MRSA
  MIC: 5 µM (≈ 1.32 µg/mL)

## Cn1ccc(NC(=S)Nc2ccc(Cl)cc2)n1 [SB29]
[1]
  Binding constant: 1150 M⁻¹

## O=[N+]([O-])c1cnn(C(=S)Nc2ccc(Cl)cc2)c1 [SB30, N-(4-chlorophenyl)-4-nitro-1H-pyrazole-1-carbothioamide]
[1]
  Binding constant: 1100 M⁻¹

## COc1ccc(NC(=S)n2ccc(N)n2)cc1 [SB31, 3-amino-N-(4-methoxyphenyl)-1H-pyrazole-1-carbothioamide]
[1]
  Copper (I) binding constant: 5452 M⁻¹
[2]; [8]
  MIC: 10 µM (≈ 2.48 µg/mL)

## Cc1ccc(NC(=S)n2ccc(N)n2)cc1 [SB32, 3-amino-N-(p-tolyl)-1H-pyrazole-1-carbothioamide]
[1]
  Copper (I) binding constant: 6140 M⁻¹
[2]; [8]
  MIC: 2.5 µM (≈ 0.581 µg/mL)

## Nc1ccn(C(=S)Nc2ccc(Br)cc2)n1 [SB33, 3-amino-N-(4-bromophenyl)-1H-pyrazole-1-carbothioamide]
[1]
  Copper (I) binding constant: 5830 M⁻¹
[2]; [8]
  MIC: 1.25 µM (≈ 0.371 µg/mL)

## Nc1ccn(C(=S)Nc2ccc(F)cc2)n1 [SB37, 3-amino-N-(4-fluorophenyl)-1H-pyrazole-1-carbothioamide]
[1]
  Copper (I) binding constant: 5540 M⁻¹
[2]; [8]
  MIC: 10 µM (≈ 2.36 µg/mL)

## O=[N+]([O-])c1cnn(C(=S)Nc2ccc(Cl)cc2)c1 [SB38]
[1]
  Binding constant: < 100 M⁻¹

## Nc1cnn(C(=S)Nc2ccc(Cl)cc2)c1 [SB39]
[1]
  Binding constant: 2200 M⁻¹

## CN(C)c1ccn(C(=S)Nc2ccc(Cl)cc2)n1 [SB40, N-(4-chlorophenyl)-3-(dimethylamino)-1H-pyrazole-1-carbothioamide]
[1]
  Copper (I) binding constant: 58500 M⁻¹
[2]; [8]
  MIC: 0.6 µM (≈ 0.168 µg/mL)

## S=C(Nc1ccc(Cl)cc1)n1ccc(OCc2ccccc2)n1 [SB44, 3-(benzyloxy)-N-(4-chlorophenyl)-1H-pyrazole-1-carbothioamide]
[2]; [8]
  MIC: 0.15 µM (≈ 0.0516 µg/mL)
[4]; [9]
  MIC: 0.15 µM (≈ 0.0516 µg/mL)
[5]
  logP: 4.74

## CN(C(=S)Nc1ccc(Cl)cc1)c1ccn(C(=S)Nc2ccc(Cl)cc2)n1 [SB45, N-(4-chlorophenyl)-3-(3-(4-chlorophenyl)-1-methylthioureido)-1H-pyrazole-1-carbothioamide]
[2]; [8]
  MIC: < 0.016 µM
[6]; read-out: IC50 +Cu
  IC50: 2 µM
[6]; read-out: IC50 −Cu
  IC50: > 50 µM
[6]; read-out: MIC90 +Cu
  MIC90: 3.5 µM (≈ 1.53 µg/mL)
[6]; read-out: MIC90 −Cu
  MIC90: > 100 µM

## S=C(Nc1ccccc1Cl)n1cccn1 [SB46, N-(2-chlorophenyl)-1H-pyrazole-1-carbothioamide]
[2]; [8]
  MIC: 0.3 µM (≈ 0.0713 µg/mL)
[6]; read-out: IC50 +Cu
  IC50: 10 µM
[6]; read-out: IC50 −Cu
  IC50: > 100 µM
[6]; read-out: MIC90 +Cu
  MIC90: > 100 µM
[6]; read-out: MIC90 −Cu
  MIC90: > 100 µM

## Cc1nn(C(=S)Nc2ccc(Cl)cc2)cc1[N+](=O)[O-] [SB47, N-(4-chlorophenyl)-3-methyl-4-nitro-1H-pyrazole-1-carbothioamide]
[2]; [8]
  MIC: 2.5 µM (≈ 0.742 µg/mL)

## Nc1ccn(C(=S)Nc2ccccc2Cl)n1 [SB49, 3-amino-N-(2-chlorophenyl)-1H-pyrazole-1-carbothioamide]
[2]; [8]
  MIC: 0.6 µM (≈ 0.152 µg/mL)

## Nc1ccn(C(=S)Nc2cccc(Cl)c2)n1 [SB50, 3-amino-N-(3-chlorophenyl)-1H-pyrazole-1-carbothioamide]
[2]; [8]
  MIC: 0.15 µM (≈ 0.0379 µg/mL)

## S=C(Nc1cccc(Cl)c1)n1cccn1 [SB52, N-(3-chlorophenyl)-1H-pyrazole-1-carbothioamide]
[2]; [8]
  MIC: 2.5 µM (≈ 0.594 µg/mL)

## S=C(Nc1ccn(C(=S)Nc2ccccc2Cl)n1)Nc1ccccc1Cl [SB53, N-(2-chlorophenyl)-3-(3-(2-chlorophenyl)thioureido)-1H-pyrazole-1-carbothioamide]
[2]; [8]
  MIC: 0.3 µM (≈ 0.127 µg/mL)

## CN(C(=S)Nc1cccc(Cl)c1)c1ccn(C(=S)Nc2cccc(Cl)c2)n1 [SB54, N-(3-chlorophenyl)-3-(3-(3-chlorophenyl)-1-methylthioureido)-1H-pyrazole-1-carbothioamide]
[4]; [10]
  MIC: 0.15 µM (≈ 0.0655 µg/mL)
[4]; [9]
  MIC: 0.15 µM (≈ 0.0655 µg/mL)
[5]
  logP: 5.9

## CN(C(=S)Nc1ccccc1Cl)c1ccn(C(=S)Nc2ccccc2Cl)n1 [SB55, N-(2-chlorophenyl)-3-(3-(2-chlorophenyl)-1-methylthioureido)-1H-pyrazole-1-carbothioamide]
[4]; [10]
  MIC: 10 µM (≈ 4.36 µg/mL)

## O=[N+]([O-])c1cnn(C(=S)Nc2ccccc2Cl)c1 [SB56, N-(2-chlorophenyl)-4-nitro-1H-pyrazole-1-carbothioamide]
[4]; [10]
  MIC: 5 µM (≈ 1.41 µg/mL)

## S=C(Nc1cccc(Cl)c1)Nc1ccn(C(=S)Nc2cccc(Cl)c2)n1 [SB57, N-(3-chlorophenyl)-3-(3-(3-chlorophenyl)thioureido)-1H-pyrazole-1-carbothioamide]
[4]; [10]
  MIC: 0.6 µM (≈ 0.253 µg/mL)

## O=[N+]([O-])c1cnn(C(=S)Nc2cccc(Cl)c2)c1 [SB59, N-(3-chlorophenyl)-4-nitro-1H-pyrazole-1-carbothioamide]
[4]; [10]
  MIC: 2.5 µM (≈ 0.707 µg/mL)

## Cc1ccn(C(=S)Nc2ccccc2Cl)n1 [SB60, N-(2-chlorophenyl)-3-methyl-1H-pyrazole-1-carbothioamide]
[4]; [10]
  MIC: 1.25 µM (≈ 0.315 µg/mL)

## Nc1cnn(C(=S)NCc2ccccc2Cl)c1 [SB62, 4-amino-N-(2-chlorobenzyl)-1H-pyrazole-1-carbothioamide]
[4]; [10]
  MIC: 5 µM (≈ 1.33 µg/mL)

## O=[N+]([O-])c1ccc(COc2ccn(C(=S)Nc3ccc(Cl)cc3)n2)cc1 [SB63, N-(4-chlorophenyl)-3-((4-nitrobenzyl)oxy)-1H-pyrazole-1-carbothioamide]
[2]; organism not named there
  MIC: > 10 µM

## S=C(Nc1ccccc1Cl)n1ccc(OCc2ccccc2)n1 [SB64, 3-(benzyloxy)-N-(2-chlorophenyl)-1H-pyrazole-1-carbothioamide]
[6]; read-out: IC50 +Cu
  IC50: 0.8 µM
[6]; read-out: IC50 −Cu
  IC50: > 100 µM
[6]; read-out: MIC90 +Cu
  MIC90: 1.6 µM (≈ 0.55 µg/mL)
[6]; read-out: MIC90 −Cu
  MIC90: > 100 µM

## S=C(Nc1ccc(Cl)cc1)n1cc(Br)cn1 [SB68, 4-bromo-N-(4-chlorophenyl)-1H-pyrazole-1-carbothioamide]
[2]; organism not named there
  MIC: 10 µM (≈ 3.17 µg/mL)

## Cc1cccc(C)c1NC(=S)n1cccn1 [SB71, N-(2,6-dimethylphenyl)-1H-pyrazole-1-carbothioamide]
[2]; organism not named there
  MIC: 0.6 µM (≈ 0.139 µg/mL)

## Cc1ccn(C(=S)Nc2c(C)cccc2C)n1 [SB72, N-(2,6-dimethylphenyl)-3-methyl-1H-pyrazole-1-carbothioamide]
[2]; organism not named there
  MIC: 0.6 µM (≈ 0.147 µg/mL)

## COC(=O)c1ccn(C(=S)Nc2ccccc2Cl)n1 [SB73]
[1]
  Copper (I) binding constant: 985.27 M⁻¹
[2]; [8]
  MIC: 5 µM (≈ 1.48 µg/mL)

## COC(=O)c1ccn(C(=S)Nc2cccc(Cl)c2)n1 [SB74, Methyl 1-((3-chlorophenyl)carbamothioyl)-1H-pyrazole-3-carboxylate]
[1]
  Copper (I) binding constant: 1127.86 M⁻¹
[2]; [8]
  MIC: 2.5 µM (≈ 0.739 µg/mL)

## CCOC(=O)c1ccn(C(=S)Nc2ccc(Cl)cc2)n1 [SB77]
[1]
  Copper (I) binding constant: 1580.08 M⁻¹
[2]; [8]
  MIC: 0.6 µM (≈ 0.186 µg/mL)

## Nc1ccn(C(=S)Nc2ccc(N=C=S)cc2)n1 [SB79, 3-amino-N-(4-isothiocyanatophenyl)-1H-pyrazole-1-carbothioamide]
[6]; read-out: IC50 +Cu
  IC50: > 100 µM
[6]; read-out: IC50 −Cu
  IC50: > 100 µM
[6]; read-out: MIC90 +Cu
  MIC90: > 100 µM
[6]; read-out: MIC90 −Cu
  MIC90: > 100 µM

## CN[C@H](CC(C)C)C(=O)N[C@H]1C(=O)N[C@@H](CC(N)=O)C(=O)N[C@H]2C(=O)N[C@H]3C(=O)N[C@H](C(=O)N[C@H](C(=O)O)c4cc(O)cc(O)c4-c4cc3ccc4O)[C@H](O)c3ccc(c(Cl)c3)Oc3cc2cc(c3O[C@@H]2O[C@H](CO)[C@@H](O)[C@H](O)[C@H]2O[C@H]2C[C@](C)(N)[C@H](O)[C@H](C)O2)Oc2ccc(cc2Cl)[C@H]1O [Vancomycin]
[7]
  minimum inhibitory concentrations (MICs): 2.2 µM (≈ 3.19 µg/mL)

## Daptinomycin
[7]
  minimum inhibitory concentrations (MICs): 0.6 µM

## Teicoplanin
[7]
  minimum inhibitory concentrations (MICs): 0.8 to 1.0 µM

— patent publication US20220024877A1 (Kansas State University Research Foundation, priority 2018, published 2022)
